# Assay results reported in patent US9504728B2, “Dosage form” (priority 2011, dated 2016).
# Like-named read-outs stand apart in the source and are kept apart here.
# Assay: in vivo
# Conditions: male, mouse, CD1 mice; for bioavailability: p.o. 10 or 5 mg/kg vs i.v. 1 mg/kg, read-out: Oral bioavailability F %
# Description: For sanglifehrins, whole blood is analysed. Compounds are formulated in 5% ethanol/5% cremophor EL/90% saline for both p.o. and i.v. administration. Groups of 3 male CD1 mice are dosed with either 1 mg/kg i.v. or 5 or 10 mg/kg p.o. Blood samples (40 μL) are taken via saphenous vein, pre-dose and at 0.25, 0.5, 2, 8, and 24 hours, and diluted with an equal amount of dH20 and put on dry ice immediately. Samples are stored at −70° C. until analysis. The concentration of the sanglifehrin or parent compound in the sample is determined via LCMS as follows: 20 μL of blood:H2O (1:1, v/v)/PK sample is added with 20 μL Internal standard (hydroxyl macrocycle, 6) at 100 ng/mL, 20 μL working solution/MeOH and 150 μL of ACN, vortexed for 1 minute at 1500 rpm, and centrifuged at 12000 rpm for 5 min. The supernatant is then injected into LC-MS/MS. The time-course of blood concentrations is plotted and used to derive area under the whole blood concentration-time curve (AUC—which is directly proportional to the total amount of unchanged drug that reaches the systemic circulation). These values are used to generate PK parameters where possible.
# To assess the pharmacokinetics of the compounds in an in vivo setting, compounds were dosed po at 10 or 5 mg/kg and iv at 1 mg/kg to groups of CD1 mice.
# Pharmacokinetic analysis was carried out as described in the general methods.
# [1] = iv, whole blood, 1 mg/kg i.v., read-out: AUClast after 1 mg/kg i.v. dose
# [2] = po, whole blood, 10 mg/kg p.o., read-out: AUClast after 10 mg/kg p.o. dose
AUC(0-t) [1],"bioavailability (whole blood, po)","AUC(0-t) (po, whole blood, 5 mg/kg p.o., read-out: AUClast after 5 mg/kg p.o. dose)",AUC(0-t) [2],SMILES,"AUC(0-t) (in vivo, iv, whole blood, 1 mg/kg i.v., read-out: AUClast after 1 mg/kg i.v. dose)","bioavailability (in vivo, po)","AUC(0-t) (in vivo, po, whole blood, 10 mg/kg p.o., read-out: AUClast after 10 mg/kg p.o. dose)"
5790 ng·h/mL,5.5%,–,3090 ng·h/mL,CCOC(=O)/C=C/C=C(\C)[C@@H]1C/C=C/C=C/[C@H](O)[C@H](C)[C@@H](O)[C@@H](CCC(C)=O)C(=O)N[C@@H](C(C)C)C(=O)N[C@@H](Cc2cccc(O)c2)C(=O)N2CCCC(N2)C(=O)O1 (some centres unmarked) [Compound 38],–,–,–
1660 ng·h/mL,0.9%,–,111 ng·h/mL,CCCC(=O)/C=C/C=C(\C)[C@@H]1C/C=C/C=C/[C@H](O)[C@H](C)[C@@H](O)[C@@H](CCC(C)=O)C(=O)N[C@@H](C(C)C)C(=O)N[C@@H](Cc2cccc(O)c2)C(=O)N2CCCC(N2)C(=O)O1 (some centres unmarked) [Compound 39],–,–,–
4910 ng·h/mL,7.8%,–,3880 ng·h/mL,CC(=O)CC[C@H]1C(=O)N[C@@H](C(C)C)C(=O)N[C@@H](Cc2cccc(O)c2)C(=O)N2CCCC(N2)C(=O)O[C@H](/C(C)=C/C=C/C(=O)OC(C)(C)C)C/C=C/C=C/[C@H](O)[C@H](C)[C@H]1O (some centres unmarked) [Compound 40],–,–,–
1940 ng·h/mL,2.4%,–,453 ng·h/mL,CC(=O)CC[C@H]1C(=O)N[C@@H](C(C)C)C(=O)N[C@@H](Cc2cccc(O)c2)C(=O)N2CCCC(N2)C(=O)O[C@H](/C(C)=C/C=C/C(=O)N(CC(C)C)CC(C)C)C/C=C/C=C/[C@H](O)[C@H](C)[C@H]1O (some centres unmarked) [Compound 41],–,–,–
9800 ng·h/mL,9.2%,–,8980 ng·h/mL,CC(=O)CC[C@H]1C(=O)N[C@@H](C(C)C)C(=O)N[C@@H](Cc2cccc(O)c2)C(=O)N2CCCC(N2)C(=O)O[C@H](/C(C)=C/C=C/C(=O)N2CCOCC2)C/C=C/C=C/[C@H](O)[C@H](C)[C@H]1O (some centres unmarked) [Compound 43],–,–,–

# Further lines, the compound ahead of its results:
SMILES,AUC(0-t) [1],"bioavailability (whole blood, po)","AUC(0-t) (po, whole blood, 5 mg/kg p.o., read-out: AUClast after 5 mg/kg p.o. dose)",AUC(0-t) [2],"AUC(0-t) (in vivo, iv, whole blood, 1 mg/kg i.v., read-out: AUClast after 1 mg/kg i.v. dose)","bioavailability (in vivo, po)","AUC(0-t) (in vivo, po, whole blood, 10 mg/kg p.o., read-out: AUClast after 10 mg/kg p.o. dose)"
CON(C)C(=O)/C=C/C=C(\C)[C@@H]1C/C=C/C=C/[C@H](O)[C@H](C)[C@@H](O)[C@@H](CCC(C)=O)C(=O)N[C@@H](C(C)C)C(=O)N[C@@H](Cc2cc(O)cc(F)c2)C(=O)N2CCCC(N2)C(=O)O1 (some centres unmarked) [Compound 23],22900 ng·h/mL,2.4%,–,–,–,–,–
CON(C)C(=O)/C=C/C=C(\C)[C@@H]1C/C=C/C=C/C=C(\C)[C@@H](O)[C@@H](CCC(C)=O)C(=O)N[C@@H](C(C)C)C(=O)N[C@@H](Cc2cc(O)cc(F)c2)C(=O)N2CCCC(N2)C(=O)O1 (some centres unmarked) [Compound 26],5500 ng·h/mL,1.5%,421 ng·h/mL,–,–,–,–
CCN(CC)C(=O)/C=C/C=C(\C)[C@@H]1C/C=C/C=C/[C@H](O)[C@H](C)[C@@H](O)[C@@H](CCC(C)=O)C(=O)N[C@@H](C(C)C)C(=O)N[C@@H](Cc2cccc(O)c2)C(=O)N2CCCC(N2)C(=O)O1 (some centres unmarked) [Compound 34],14000 ng·h/mL,0.1%,–,800 ng·h/mL,–,–,–
C/C(=C\CO)[C@@H]1C/C=C/C=C/[C@@H]2OC3(C)CC[C@@H](C(=O)N[C@@H](C(C)C)C(=O)N[C@@H](Cc4cccc(O)c4)C(=O)N4CCCC(N4)C(=O)O1)[C@H](O3)[C@H]2C [Compound 35],813 ng·h/mL,0.1%,–,11.3 ng·h/mL,–,–,–
CNC(=O)/C=C/C=C(\C)[C@@H]1C/C=C/C=C/[C@H](O)[C@H](C)[C@@H](O)[C@@H](CCC(C)=O)C(=O)N[C@@H](C(C)C)C(=O)N[C@@H](Cc2cccc(O)c2)C(=O)N2CCCC(N2)C(=O)O1 (some centres unmarked) [Compound 36],4920 ng·h/mL,0.04%,–,17.8 ng·h/mL,–,–,–
CNC(=O)/C=C/C=C(\C)[C@@H]1C/C=C/C=C/[C@H](O)[C@H](C)[C@@H](O)[C@@H](CCC(C)=O)C(=O)N[C@@H](C(C)C)C(=O)N[C@@H](Cc2cccc(OC)c2)C(=O)N2CCCC(N2)C(=O)O1 (some centres unmarked) [Compound 37],1220 ng·h/mL,0.04%,–,4.76 ng·h/mL,–,–,–
CC(=O)CC[C@H]1C(=O)N[C@@H](C(C)C)C(=O)N[C@@H](Cc2cccc(O)c2)C(=O)N2CCCC(N2)C(=O)O[C@H](/C(C)=C/C=C/C(=O)Nc2ccccn2)C/C=C/C=C/[C@H](O)[C@H](C)[C@H]1O (some centres unmarked) [Compound 42],–,–,–,–,11700 ng·h/mL,0.7%,919 ng·h/mL
